Results from ChEMBL document CHEMBL1201862, “PubChem BioAssay data set” (2004).
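1) Cells in 96-well plates. 2) Compound, 48 h, 5 concentrations. 3) Linear interpolation between surrounding doses. 4) Unreached endpoint = highest concentration. At the GI50, growth is halved.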 Calls of active or inactive are those of the source. Cut-off read from the data, not from the text of the source: active = GI50 up to about 1.1 µM and inactive = higher.

What was measured:
Test in all cases: DTP human tumour cell line panel, 48 h
CCRF-CEM = tested on: CCRF-CEM
SK-MEL-28 = tested on: SK-MEL-28
SK-MEL-2 = tested on: SK-MEL-2
HOP-62 = tested on: HOP-62
HCC 2998 = tested on: HCC 2998
SR = tested on: SR
IGROV-1 = tested on: IGROV-1
HT-29 = tested on: HT-29
HCT-116 = tested on: HCT-116
RXF 393 = tested on: RXF 393
HOP-92 = tested on: HOP-92
MDA-N = tested on: MDA-N
U-251 = tested on: U-251
UACC-257 = tested on: UACC-257
EKVX = tested on: EKVX
SNB-19 = tested on: SNB-19
MDA-MB-435 = tested on: MDA-MB-435
MDA-MB-231 = tested on: MDA-MB-231
786-0 = tested on: 786-0
SNB-75 = tested on: SNB-75
UO-31 = tested on: UO-31
K562 = tested on: K562
A549 = tested on: A549
ACHN = tested on: ACHN
OVCAR-4 = tested on: OVCAR-4
NCI-H522 = tested on: NCI-H522
KM12 = tested on: KM12
SF-295 = tested on: SF-295
OVCAR-8 = tested on: OVCAR-8
OVCAR-3 = tested on: OVCAR-3
NCI-H23 = tested on: NCI-H23
MCF7 = tested on: MCF7
SW-620 = tested on: SW-620
DU-145 = tested on: DU-145
BT-549 = tested on: BT-549
SN12C = tested on: SN12C
LOX IMVI = tested on: LOX IMVI
NCI/ADR-RES = tested on: NCI/ADR-RES
SF-539 = tested on: SF-539
Hs-578T = tested on: Hs-578T
OVCAR-5 = tested on: OVCAR-5
SK-MEL-5 = tested on: SK-MEL-5
M14 = tested on: M14
UACC-62 = tested on: UACC-62
HCT-15 = tested on: HCT-15
TK-10 = tested on: TK-10
MOLT-4 = tested on: MOLT-4
RPMI-8226 = tested on: RPMI-8226
COLO 205 = tested on: COLO 205
PC-3 = tested on: PC-3
SK-OV-3 = tested on: SK-OV-3
SF-268 = tested on: SF-268

Compound: c1ccc(Cc2nc(Cc3n[nH]c(Cc4ccccc4)n3)n[nH]2)cc1
- GI50 (CCRF-CEM): > 100 µM (inactive)
- GI50 (SK-MEL-28): > 100 µM (inactive)
- GI50 (SK-MEL-2): > 100 µM (inactive)
- GI50 (HOP-62): > 100 µM (inactive)
- GI50 (HCC 2998): > 100 µM (inactive)
- GI50 (SR): > 100 µM (inactive)
- GI50 (IGROV-1): > 100 µM (inactive)
- GI50 (HT-29): > 100 µM (inactive)
- GI50 (HCT-116): > 100 µM (inactive)
- GI50 (RXF 393): > 100 µM (inactive)
- GI50 (HOP-92): > 100 µM (inactive)
- GI50 (MDA-N): > 100 µM (inactive)
- GI50 (U-251): > 100 µM (inactive)
- GI50 (UACC-257): > 100 µM (inactive)
- GI50 (EKVX): > 100 µM (inactive)
- GI50 (SNB-19): > 100 µM (inactive)
- GI50 (MDA-MB-435): > 100 µM (inactive)
- GI50 (MDA-MB-231): > 100 µM (inactive)
- GI50 (786-0): > 100 µM (inactive)
- GI50 (SNB-75): > 100 µM (inactive)
- GI50 (UO-31): > 100 µM (inactive)
- GI50 (K562): > 100 µM (inactive)
- GI50 (A549): > 100 µM (inactive)
- GI50 (ACHN): > 100 µM (inactive)
- GI50 (OVCAR-4): > 100 µM (inactive)
- GI50 (NCI-H522): > 100 µM (inactive)
- GI50 (KM12): > 100 µM (inactive)
- GI50 (SF-295): > 100 µM (inactive)
- GI50 (OVCAR-8): > 100 µM (inactive)
- GI50 (OVCAR-3): > 100 µM (inactive)
- GI50 (NCI-H23): > 100 µM (inactive)
- GI50 (MCF7): > 100 µM (inactive)
- GI50 (SW-620): > 100 µM (inactive)
- GI50 (DU-145): > 100 µM (inactive)
- GI50 (BT-549): > 100 µM (inactive)
- GI50 (SN12C): > 100 µM (inactive)
- GI50 (LOX IMVI): > 100 µM (inactive)
- GI50 (NCI/ADR-RES): > 100 µM (inactive)
- GI50 (SF-539): > 100 µM (inactive)
- GI50 (Hs-578T): 11.8 µM (inactive)
- GI50 (OVCAR-5): > 100 µM (inactive)
- GI50 (SK-MEL-5): > 100 µM (inactive)
- GI50 (M14): > 100 µM (inactive)
- GI50 (UACC-62): > 100 µM (inactive)
- GI50 (HCT-15): > 100 µM
- GI50 (TK-10): > 100 µM (inactive)
- GI50 (MOLT-4): > 100 µM (inactive)
- GI50 (RPMI-8226): > 100 µM (inactive)
- GI50 (COLO 205): > 100 µM (inactive)
- GI50 (PC-3): > 100 µM (inactive)
- GI50 (SK-OV-3): > 100 µM (inactive)
- GI50 (SF-268): > 100 µM (inactive)
